Measurements from patent US9504676B2, “Molecules inhibiting a metabolic pathway involving the Syk protein tyrosine kinase and method for identifying said molecules” (CENTRE NATIONAL DE LA RECHERCHE SCIENTIFIQUE, priority 2008, dated 2016).
Converted amounts (≈) assume the structure as drawn.

How the values were obtained:
[1] = biological target: T1, murine Syk tyrosine kinase protein (GST:Syk 6-242) (Mus musculus, UniProt P48025); test: ADA method: displacement of the binding of scFv G4G11 with Syk (ELISA); conditions: small molecules at 10 μM, scFv G4G11 100 nM; read-out: In vit. inhib.: mean inhibition % of the binding of scFv G4G11 with Syk in the ADA method
T1 construct: made in house
Source text: The term “percentage of inhibition” of the binding of an antibody or antibody fragment with Syk protein, particularly refers to the ratio […], where A consists of the intensity of a signal proportional to the quantity of an antibody or antibody fragment bound with Syk protein in the absence of a molecule according to the invention and B the intensity of the same signal in the presence of a molecule according to the invention under the same conditions. […] This test may be performed for example according to the protocol described in example 3-2) hereinafter.
The inventors developed the ADA (Antigen Displacement Assay) method to identify small molecules capable of displacing the association with scFv G4G11 with Syk. […] To understand the mode of action of C-13, the inventors firstly identified the binding site of G4G11 using the SPOT method^16. An epitope located on the N-terminal SH2 domain of Syk, comprising amino acids 65-74 and 100% preserved in mouse, rat and human sequences, was identified.
The ADA method was then applied to each of these […] molecules to measure the ability thereof to inhibit the binding of scFv G4G11 with Syk.
(§1) • 1) Chemical products and antibodies. A chemical bank of 3000 molecules (a varied subset) was acquired from ChemBridge, Inc. (San Diego, Calif.). Stocks of solutions of small molecules were prepared at a rate of 10 mM in DMSO (dimethylsulphoxide), except for C-13 (methyl 2-{5-[(3-benzyl-4-oxo-2-thioxo-1,3-thiazolidin-5-ylidene)methyl]-2-furyl}benzoate, ChemBridge ID No. 6197026) prepared in DMF (dimethylformamide). Unless specified otherwise, all the reagents were supplied by Sigma. Dinitrophenyl (DNP) hapten was acquired from Calbiochem. Sepharose GammaBind G and all the secondary antibodies were supplied by GE Health Amersham Biosciences. The anti-Syk, anti-Lyn, anti-Btk, anti-PLC-γ1, anti-PLC-γ2, anti-LAT, anti-SLP-76, anti-p38, anti-JNK, anti-Vav, anti-Akt1 and 9E10 antibodies conjugated with HRP were acquired from Santa Cruz Biotechnology. The anti-phospho-p44/42 MAP Kinase, anti-p44/42 MAP Kinase, anti-phospho-p38, anti-phospho-JNK, anti-phospho-Akt1 antibodies were acquired from Cell Signaling. The anti-phospho-LAT and anti-phospho-PLC-γ1 antibodies were supplied by Biosource and the anti-phospho-SLP-76 antibodies by BD Pharmingen. The 4G10 anti-phosphotyrosine monoclonal antibody was acquired from Upstate Biotechnology. • 2) ADA method: ELISA type high-speed molecule screening test, based on antibody displacement (WO 2005106481). The recombinant fusion protein GST:Syk 6-242^8 comprising the residues 6 to 242 of murine Syk tyrosine kinase protein illustrated in FIG. 8B (SEQ ID No. 4) was immobilised on an ELISA plate at a final concentration of 10 μg ml^−1. For the screening of the chemical molecule bank, the small molecules, diluted in PBS at a final concentration of 10 μM were added to the wells for one hour at ambient temperature, before adding the fragment scFv G4G11 at a final concentration of 100 nM for an additional hour. The binding of G4G11 with Syk was assessed by adding the 9E10 monoclonal antibody conjugated with HRP detecting the amino acid sequence EQKLISEEDLN of human c-myc protein located at the C-terminal end of the scFv fragment. To generate Syk mutants, targeted mutagenesis was used on GST:Syk 6-242 protein and the binding of G4G11 with the mutants was assessed in the presence of 5 μM of C-13. • 3) Cells, culture conditions and functional tests. Anti-DNP 2682-I mouse monoclonal antibody was used as the culture supernatant of hybridomas containing 1 μg/ml of IgE. Femoral bone marrow cells were sampled and cultured in Opti-MEM medium (Gibco) supplemented with 10% foetal calf serum and 4% X63 transfectant supernatant secreting murine IL-3. RBL-2H3 (ATCC) leukaemic rat basophil cells were maintained in a single-layer culture in RPMI 1640 medium supplemented with 10% foetal calf serum (Gibco). […]

[2] = tested on: RBL-2H3 cells; test: cells; type: cell-based, rat; conditions: Rattus norvegicus; RBL-2H3 cells; read-out: Degran. IC50: concentration inhibiting mast cell degranulation by 50%
Protocol: These 87 molecules were also tested in vitro to assess the ability thereof to inhibit RBL-2H3 cell degranulation (see table 1).
as §1, with “(Gibco). Measurements of β-hexosaminidase released by the RBL-2H3 cells were performed as described previously^7, except that, after 12-16 hours of incubation with anti-DNP IgE (0.5 μg/ml), the cells were incubated for 90 min at 37° C. in RPMI medium supplemented with the specified concentrations of C-13 or DMF (0.25%). The cells were stimulated for 45 min with DNP-BSA (50 ng ml^−1) or ionomycin (1.5 μM). The BMMC cells were incubated for one hour at 37° C. with anti-DNP IgE (100 ng/ml). They were then incubated with C-13 (3 μM) or DMF (0.3%) for 3 hours at 37° C., and stimulated with varied concentrations of DNP-BSA. The level of β-hexosaminidase released was measured 10 min later and the TNF-α titration was performed by means of a cytotoxicity test on L929 cells as described previously^10, 3 hours after stimulation. The results illustrated in FIG. 3 are representative of three independent experiments. • 4) Immunoprecipitations, in vitro kinase assays and immunodetection.” for “(Gibco).”

inhibition at 10 µM [1] [%]	IC50 [2] [µg/mL]	Compound
48.5	> 10	COc1ccc(OC)c(C2C(C(=O)c3ccc(F)cc3)=C(O)C(=O)N2CCCN2CCOCC2)c1 (stereo not drawn) [Molecule 43, 5-(2,5-dimethoxyphenyl)-4-(4-fluorobenzoyl)-3-hydroxy-1-[3-(4-morpholinyl)propyl]-1,5-dihydro-2H-pyrrol-2-one]
48.5	> 10	O=C(C1=C(O)C(=O)N(CCCN2CCOCC2)C1c1ccccc1F)c1ccc(Cl)cc1 (stereo not drawn) [Molecule 44, 4-(4-chlorobenzoyl)-5-(2-fluorophenyl)-3-hydroxy-1-[3-(4-morpholinyl)propyl]-1,5-dihydro-2H-pyrrol-2-one]
48.5	> 10	CC(C)c1ccc(C2C(C(=O)c3ccc(F)cc3)=C(O)C(=O)N2CCN2CCOCC2)cc1 (stereo not drawn) [Molecule 45, 4-(4-fluorobenzoyl)-3-hydroxy-5-(4-isopropylphenyl)-1-[2-(4-morpholinyl)ethyl]-1,5-dihydro-2H-pyrrol-2-one]
47.5	> 10	Cn1c(SCC(=O)NCC2CCCO2)nnc1-c1ccc(NC(=O)c2ccccc2Cl)cc1 (stereo not drawn) [Molecule 47]
47	> 10	Cc1ccc(S(=O)(=O)N(CC(=O)N2CCN(Cc3ccccc3)CC2)c2ccc(C)c(C)c2)cc1 [Molecule 48, N-[2-(4-benzyl-1-piperazinyl)-2-oxoethyl]-N-(3,4-dimethylphenyl)-4-methylbenzenesulphonamide]
46.5	> 10	CN(C)CCCN1C(=O)C(O)=C(C(=O)c2ccc(S(=O)(=O)N(C)C)cc2)C1c1ccc(Cl)c(Cl)c1 (stereo not drawn) [Molecule 50, 4-({2-(3,4-dichlorophenyl)-1-[3-(dimethylamino)propyl]-4-hydroxy-5-oxo-2,5-dihydro-1H-pyrrol-3-yl}carbonyl)-N,N-dimethylbenzenesulphonamide]
46	> 10	CCN(CC)CCCN1C(=O)C(O)=C(C(=O)c2ccc3c(c2)OCO3)C1c1cccnc1 (stereo not drawn) [Molecule 51, 4-(1,3-benzodioxol-5-ylcarbonyl)-1-[3-(diethylamino)propyl]-3-hydroxy-5-(3-pyridinyl)-1,5-dihydro-2H-pyrrol-2-one]
46	> 10	COc1cc(C2C(C(=O)c3ccc(C)o3)=C(O)C(=O)N2CCN(C)C)cc(OC)c1OC (stereo not drawn) [Molecule 52, 1-[2-(dimethylamino)ethyl]-3-hydroxy-4-(5-methyl-2-furoyl)-5-(3,4,5-trimethoxyphenyl)-1,5-dihydro-2H-pyrrol-2-one]
45.5	> 10	COc1cccc(C2C(C(=O)c3ccc(C)o3)=C(O)C(=O)N2CCN2CCOCC2)c1 (stereo not drawn) [Molecule 53, 3-hydroxy-5-(3-methoxyphenyl)-4-(5-methyl-2-furoyl)-1-[2-(4-morpholinyl)ethyl]-1,5-dihydro-2H-pyrrol-2-one]
42.5	~5 (≈ 9.7 µM)	CCOC(=O)C1=C(c2ccccc2)NC(SCC(=O)Nc2cccc(OC)c2)=C(C#N)C1c1ccco1 (stereo not drawn) [Molecule 55, ethyl 5-cyano-4-(2-furyl)-6-({2-[(3-methoxyphenyl)amino]-2-oxoethyl}thio)-2-phenyl-1,4-dihydro-3-pyridine carboxylate]
42	~10 (≈ 20.2 µM)	COc1cccc(C2C(C(=O)c3cc(C)ccc3C)=C(O)C(=O)N2CCCN2CCOCC2)c1OC (stereo not drawn) [Molecule 56, 5-(2,3-dimethoxyphenyl)-4-(2,5-dimethylbenzoyl)-3-hydroxy-1-[3-(4-morpholinyl)propyl]-1,5-dihydro-2H-pyrrol-2-one]
42	> 10	N#CC1=C(N)Oc2[nH]nc(-c3ccccc3)c2C1c1cccc(OC(=O)c2ccco2)c1 (stereo not drawn) [Molecule 57, 3-(6-amino-5-cyano-3-phenyl-1,4-dihydropyrano[2,3-c]pyrazol-4-yl)phenyl 2-furoate]
40	~10 (≈ 22.8 µM)	Cc1cc(C)c(OCC(=O)N2CCN(C(=O)COc3c(C)cc(C)cc3C)CC2)c(C)c1 [Molecule 58, 1,4-bis [(mesityloxy)acetyl] piperazine]
40	> 10	CCOC(=O)c1c(-c2ccccc2)oc2ccc(OC(C(=O)O)c3ccccc3)cc12 (stereo not drawn) [Molecule 60, {[3-(ethoxy carbonyl)-2-phenyl-1-benzofuran-5-yl]oxy} (phenyl) acetic acid]
38.5	> 10	O=C1c2ccc(Oc3ccc4c(c3)C(=O)N(CC3CCCO3)C4=O)cc2C(=O)N1CC1CCCO1 (stereo not drawn) [Molecule 62, 5,5′-oxybis [2-(tetrahydro-2-furanyl methyl)-1H-isoindole-1,3(2H)-dione]]
